Laboratory results as given in US20080242594A1, “Methods for Promoting Stem Cell Proliferation and Survival” (priority 2005, published 2008).

Legend:
STAT3 = STAT3 phosphorylation (Ser727, Tyr705) immunoblot in CNS stem cells; type: cell-based, mouse
Description: Ligands that activate JAK/STAT signaling promote astrocytic differentiation of CNS stem cells (Johe et al., Genes Dev 10:3129-40, 1996; Raj an et al., J Neurosci 18:3620-9, 1998; Bonni et al., Science 278:477-83, 1997; Song et al., Nat Neurosci 7:229-35, 2004; He et al., Nat Neurosci 8:616-625, 2005). When applying CNTF to CNS stem cells it was noted that low concentrations of CNTF stimulated survival but not expression of astrocyte specific genes. This is consistent with previous observations of Akt phosphorylation downstream of gp130 activation (Taga et al., Annu Rev Immunol 15:797-819, 1997). […] At high concentrations (20 ng/ml) the phosphorylation of Tyr705 can be blocked by an inhibitor of JAK while allowing a CNTF-induced increase in Ser727 phosphorylation (FIG. 2B) (Thompson et al., Bioorg Med Chem Lett 12:1219-23, 2002).
CNTF was used as a positive control; CNTF, induced the phosphorylation on both sites. With both CNTF and Notch activation, phosphorylation peaked at around 30 min. STAT3 phosphorylation on Ser727 following Notch activation was sensitive to the γ-secretase inhibitor DAPT (FIG. 2e). […] In contrast to CNTF, no Tyr705 phosphorylation was detected at any of the doses of Notch receptor ligands.
It was determined that insulin also maintains phosphorylation of serine 727 in STAT3 in foetal neural stem cell cultures.

[1] = tested on: E13.5 cortical embryonic mouse CNS stem cells; assay: CNS stem cell plating efficiency / colony formation / survival; type: cell-based
Description: (§1) Cell culture: E13.5 cortical embryonic mouse and adult rat subventricular zone CNS stem cells were grown as previously described (Johe et al., Genes Dev 10:3129-40, 1996; Rajan et al., J Neurosci 18:3620-9, 1998). Cells were expanded in serum-free DMEM/F12 medium with N2 supplement with FGF2 (20 ng/ml) for 5 days and were re-plated at 1000-10,000 cells per cm^2. FGF2 was included throughout our experiments, unless otherwise stated.
To explore these paradoxical observations, CNS stem cell cultures from mid-gestation (embryonic day 13.5) mouse dorsal telencephalon were treated with soluble Notch ligands. […] Following initial passaging, the cells were plated at a density of 1000 cells/cm^2, cultured for 5 days in the presence of FGF2, and colony numbers, sizes, and BrdU incorporation (after a 4 hour BrdU pulse) were enumerated. Notch activation by Jagged-1 or Delta-4 (200 ng/ml) increased the number of colonies generated in vitro by over 3-fold (FIG. 1a). […] The effects of Notch activation were most dramatic when treatments were initiated at the start of the culture.
Insulin in the medium is also thought to promote cell survival. […] Seeding cells in the absence of insulin caused the plating efficiency measured at five days to drop to 29.9%±37.9 (FIG. 1e). Delta-4 was able to compensate for the lack of insulin in the medium, and restored plating efficiency (125%±19.4). Because Notch activation improved survival, activation of Akt, a ser/threonine kinase known to be involved in cell survival, was assayed. Notch activation rapidly (5 minutes) promoted the phosphorylation of Akt on Ser473 and […] in both the presence and absence of insulin (FIG. 1f).

adult rat SVZ stem cells = assay: Adult SVZ stem cell plating efficiency and colony size; type: cell-based
Description: as §1
Very little protein or mRNA were detected outside the SVZ (FIG. 4g). Adult CNS stem cells can be cultured as a monolayer in vitro (FIG. 4h) and they show similar responses to extracellular signals that regulate stem cell differentiation upon withdrawal of the mitogen that sustains the undifferentiated state (Johe et al., Genes Dev 10:3129-40, 1996). To ask if Notch activation promotes survival in rat adult SVZ cultures, isolated cells were grown in the presence of FGF2 with and without Delta-4 for one week. […] When FGF2 was withdrawn for a week, cells at clonal density generated all three CNS lineages (FIG. 8C, Table 4).

Hes3 = Hes3 expression (RT-PCR, immunohistochemistry) in CNS stem cells; type: cell-based, mouse; conditions: for Hes3 mRNA levels: CNTF 20 ng/ml
Description: RT-PCR: For reverse-transcriptase PCR analysis, RNA was extracted from cell cultures or brain homogenates with Trizol (Invitrogen, 15596-026), and PCR reactions were performed with the ProSTAR First-Strand RT-PCR Kit (Stratagene, 200420). Primers were used for the following genes: Hes1, Hes2, Hes3, Hes5, Hes6, Hey2; Hes7
Notch signaling regulates transcription of the Hes/Hey gene family, a group of genes implicated in the control of differentiation (Iso et al., J Cell Physiol 194:237-55, 2003). RT-PCR was used to assess mRNA regulation of these genes one hour after Notch activation in CNS stem cells. […] The ability of high concentrations of CNTF to inhibit Hes3 induction following Notch activation was dependent on JAK activity (FIG. 4e). In contrast, in the absence of added Notch ligand, Hes3 mRNA levels were elevated by high CNTF and the JAK inhibitor (FIG. 4e).
Conversely, treatment with ciliary neurotrophic factor (CNTF), a cytokine that opposes the signal transduction pathway downstream of Notch activation opposed the ability of D114 to induce Hes3 transcription. Immunohistochemical experiments were performed that documented D114, CNTF regulate Hes3 expression. Thus, at the protein expression level, D114 maintains and CNTF inhibits Hes3 expression.

mES (D3) cells = assay: mES cell plating efficiency, Oct4 and STAT3 phosphorylation in the presence of LIF; type: cell-based, mouse; conditions: for Oct4 expression: five day treatments in the presence of LIF; for cell survival in a plating efficiency assay: in the presence of LIF
Description: FIGS. 10a-10c are a set of images showing JAK inhibition reduces the phosphorylation of STAT3 on Ser727 in mES cell cultures. […] Very low levels of phosphorylated p38 were detectable under all conditions. […] Self-renewal of mES cells correlated with Ser727 phosphorylation.
mES (D3) cells were obtained from ATCC and were maintained in feeder-free cultures on gelatin-coated plates supplemented with 1400 units/ml LIF.
There is great interest in conditions that support the growth of mouse and human ES cells. In contrast to CNS SC (FIG. 2, FIG. 3) and hES SC (se below), the growth of undifferentiated mouse ES cells depends on the stimulation of the JAK/STAT pathway and STAT3 phosphorylation on Tyr705 has been specifically shown to be essential for self-renewal of mouse ES cells (Niwa et al., Genes Dev 12:2048-60, 1998; Matsuda et al., Embo J 18:4261-9, 1999). Ligands that stimulate the JAK/STAT pathway cause human ES cells to differentiate (Daheron et al., Stem Cells 22:770-8, 2004; Humphrey et al., Stem Cells 22:522-30, 2004). It was determined if the Notch/sSTAT survival pathway is present in mouse or human ES cells.

[2] = in the presence of FGF2 for one week

Compound | effect on CNTF-induced STAT3 phosphorylation (STAT3; CNTF 20 ng/ml) | CNS stem cell survival / plating efficiency ([1]; 5 days, versus FGF2 control, CNTF low 0.01, 0.1 ng/ml or high 20 ng/ml with JAK inhibitor) | enhancement of plating efficiency (adult rat SVZ stem cells) | Hes3 mRNA levels (Hes3) | STAT3 phosphorylation on Ser727 and Tyr705 (mES (D3) cells; 90 min) | Oct4 expression (mES (D3) cells) | cell survival in a plating efficiency assay (mES (D3) cells) | concentration at which peak STAT3 phosphorylation was achieved (STAT3; dose response, Ser727) | plating efficiency ([1]; absence of insulin in the medium, five days) | colony size (adult rat SVZ stem cells; [2]) | plating efficiency (adult rat SVZ stem cells; [2]) | Hes3 expression at the protein expression level (Hes3; immunohistochemical)
CC(C)(C)c1nc2c3ccc(F)cc3c3c(=O)[nH]ccc3c2[nH]1 [JAK Inhibitor, 2-(1,1-Dimethylethyl)-9-fluoro-3,6-dihydro-7H-benz[h]-imidaz[4,5-f]isoquinolin-7-one] | selectively blocked Tyr705 but not Ser727 phosphorylation | increased survival | approx. 40% | no effect on Hes3 mRNA | significant down-regulation | down-regulated Oct4 | reduced it |  |  |  |  | 
Delta-4: soluble Notch ligand Delta-4 (1389-D4) from R&D |  |  |  | increases its transcription |  | did not affect Oct4 expression | did not significantly alter cell survival | ~1 ng/mL | 125%±19.4 | 278.5%±52.5 | 1050%±273.8 | maintains
